Reference: ChEMBL document CHEMBL1201862, “PubChem BioAssay data set” (2004)
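Results reflect a 48-hour exposure of cells in 96-well plates to compound at five concentrations. GI50 is the concentration that inhibits growth by half.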 Active and inactive are the calls of the source. No stated cut-off is given here; in the data, active = GI50 up to about 1.1 µM and inactive = higher.

How the values were obtained:
Experiment in all cases: NCI-60 cell line screen, 48 h
NCI-H226 = system: NCI-H226
MDA-MB-435 = system: MDA-MB-435
BT-549 = system: BT-549
HCC 2998 = system: HCC 2998
Malme-3M = system: Malme-3M
HOP-62 = system: HOP-62
RXF 393 = system: RXF 393
HOP-92 = system: HOP-92
SNB-75 = system: SNB-75
786-0 = system: 786-0
HL-60 = system: HL-60
SK-MEL-5 = system: SK-MEL-5
OVCAR-8 = system: OVCAR-8
OVCAR-5 = system: OVCAR-5
RPMI-8226 = system: RPMI-8226
COLO 205 = system: COLO 205
A498 = system: A498
NCI/ADR-RES = system: NCI/ADR-RES
CCRF-CEM = system: CCRF-CEM
CAKI-1 = system: CAKI-1
SF-295 = system: SF-295
U-251 = system: U-251
SR = system: SR
NCI-H23 = system: NCI-H23
Hs-578T = system: Hs-578T
LOX IMVI = system: LOX IMVI
UACC-62 = system: UACC-62
HT-29 = system: HT-29
NCI-H522 = system: NCI-H522
SK-OV-3 = system: SK-OV-3
ACHN = system: ACHN
SNB-19 = system: SNB-19
TK-10 = system: TK-10
SK-MEL-28 = system: SK-MEL-28
IGROV-1 = system: IGROV-1
SF-539 = system: SF-539
OVCAR-4 = system: OVCAR-4
PC-3 = system: PC-3
UACC-257 = system: UACC-257
KM12 = system: KM12
UO-31 = system: UO-31
MCF7 = system: MCF7
T47D = system: T47D
OVCAR-3 = system: OVCAR-3
SK-MEL-2 = system: SK-MEL-2
MOLT-4 = system: MOLT-4
K562 = system: K562
SW-620 = system: SW-620
SF-268 = system: SF-268
HCT-15 = system: HCT-15
NCI-H460 = system: NCI-H460
A549 = system: A549
HCT-116 = system: HCT-116
EKVX = system: EKVX
MDA-MB-231 = system: MDA-MB-231
M14 = system: M14
MDA-N = system: MDA-N
SN12C = system: SN12C
DU-145 = system: DU-145

Measured: GI50

S=C(NN=C1NCCCN1)Nc1ccccc1
> 100 µM: HCT-15
inactive: NCI-H226 > 100 µM | MDA-MB-435 > 100 µM | BT-549 > 100 µM | HCC 2998 > 100 µM | Malme-3M > 100 µM | HOP-62 > 100 µM | RXF 393 > 100 µM | HOP-92 > 100 µM | SNB-75 > 100 µM | 786-0 > 100 µM | HL-60 52.8 µM | SK-MEL-5 > 100 µM | OVCAR-8 > 100 µM | OVCAR-5 > 100 µM | RPMI-8226 28.2 µM | COLO 205 > 100 µM | A498 > 100 µM | NCI/ADR-RES > 100 µM | CCRF-CEM 43.3 µM | CAKI-1 > 100 µM | SF-295 > 100 µM | U-251 > 100 µM | SR 63.1 µM | NCI-H23 > 100 µM | Hs-578T > 100 µM | LOX IMVI > 100 µM | UACC-62 > 100 µM | HT-29 > 100 µM | NCI-H522 60.4 µM | SK-OV-3 > 100 µM | ACHN > 100 µM | SNB-19 > 100 µM | TK-10 > 100 µM | SK-MEL-28 > 100 µM | IGROV-1 > 100 µM | SF-539 > 100 µM | OVCAR-4 > 100 µM | PC-3 > 100 µM | UACC-257 > 100 µM | KM12 > 100 µM | UO-31 > 100 µM | MCF7 > 100 µM | T47D > 100 µM | OVCAR-3 > 100 µM | SK-MEL-2 > 100 µM | MOLT-4 48.3 µM | K562 99.5 µM | SW-620 > 100 µM | SF-268 > 100 µM | NCI-H460 > 100 µM | A549 > 100 µM | HCT-116 > 100 µM | EKVX > 100 µM

CC(=O)Oc1cc(C)c(OC(C)=O)c2c1[C@H]1CC[C@]3(C)[C@@H](OC(C)=O)CC[C@H]3[C@@H]1CC2
17.5 µM: HCT-15
inactive: MDA-MB-231 17.1 µM | NCI-H226 > 10 µM | MDA-MB-435 14.4 µM | BT-549 15.9 µM | HCC 2998 13.9 µM | Malme-3M 17.4 µM | HOP-62 19.9 µM | RXF 393 16.8 µM | HOP-92 11.5 µM | SNB-75 26.6 µM | 786-0 21.8 µM | HL-60 20 µM | SK-MEL-5 17.5 µM | OVCAR-8 20.5 µM | M14 16.3 µM | OVCAR-5 21.5 µM | RPMI-8226 19.5 µM | A498 18.7 µM | NCI/ADR-RES 18.2 µM | CCRF-CEM 17.9 µM | CAKI-1 17.5 µM | MDA-N 14.6 µM | SF-295 20.7 µM | U-251 15.9 µM | SR 29.8 µM | NCI-H23 18.4 µM | Hs-578T 23.4 µM | LOX IMVI 15.8 µM | UACC-62 17.7 µM | HT-29 17.1 µM | NCI-H522 16.9 µM | ACHN 14.6 µM | SNB-19 17.8 µM | TK-10 16.1 µM | SK-MEL-28 16.4 µM | IGROV-1 17.1 µM | SF-539 19.2 µM | PC-3 13.9 µM | UACC-257 15.8 µM | KM12 15.3 µM | UO-31 15.3 µM | MCF7 20.6 µM | OVCAR-3 18.2 µM | MOLT-4 11.6 µM | K562 23.7 µM | SW-620 18.4 µM | SF-268 23.3 µM | NCI-H460 17.7 µM | SN12C 16.7 µM | A549 17.5 µM | HCT-116 16.6 µM | DU-145 16.6 µM | EKVX 13.5 µM
